Experimental data from US7754202B1, “Methods of controlling cell differentiation and growth using a fusion protein and a drug” (Stanford University, priority 1998, dated 2010).

Assays:
[1] = system: Ba/F3 cell lines expressing gp130 signaling domain fused to FKBP12 domains; test: Proliferation of Ba/F3 cell lines expressing gp130-FKBP12 fusion proteins; format: cell-based
Text: Expression cassettes encoding fusion proteins containing the signaling domains of the gp130 fused to one, two or three copies of the FKBP12 domain were used to generate stably transfected Ba/F3 cell lines. The complexes that can be assembled in response to FK1012 differ for the various fusion proteins. In the presence of FK1012, fusion proteins containing a single FKBP domain are limited to simple dimerization, whereas proteins containing two or more FKBP domains can form both dimers and oligomers.
In one illustrative experiment, an MSCV-based expression vector was constructed that contained two FKBP12 domains.

[2] = system: cells; test: Immunosuppressive activity or other toxicity to cells; format: cell-based; conditions: in experiments to date
[3] = Solubility in aqueous culture medium; format: physicochemical; conditions: aqueous buffer, serial dilution in culture medium, read-out: highest concentration ensuring complete solubility in the (aqueous) medium
Description: Working concentrations of AP1510 can be obtained by adding compound directly from ethanol stocks, or by diluting serially in culture medium just before use. In the latter case it is recommended that the highest concentration not exceed 5 uM, to ensure complete solubility in the (aqueous) medium. In either case, the final concentration of ethanol in the medium added to mammalian cells should be kept below 0.5% (a 200-fold dilution of a 100% ethanol solution) to prevent detrimental effects of the solvent on the cells.

[4] = system: CD34+ cells from human cord blood transduced with dimerizer-responsive c-mpl signaling domain; test: Amplification and erythroid differentiation of MFM-transduced human cord blood CD34+ cells; format: cell-based
Text: CD34+ cells were selected from human cord blood and transduced with a PG13-packaged, MSCV-based retrovirus vector encoding a dimerizer-responsive version of the c-mpl signaling domain (MFM, as described in Example 7, see FIG. 4). […] This finding was reproducible, occurring in each of four separate experiments.

[5] = system: murine bone marrow cells transduced with MSCVF1mpl; test: Suspension culture of MSCVF1mpl-transduced bone marrow cells (cell numbers, cell types); format: cell-based
Description: FIG. 2: FK1012 stimulates expansion of genetically modified bone marrow cells. Following retroviral transduction, marrow cells were cultured in IMDM containing 10% FCS, 50 U/ml penicillin, […] streptomycin either in the presence or absence of FK1012 (100 nM) or flt-3 ligand (Peprotech-100 ng/ml), in a 37°, 5% CO2, incubator. Cell numbers were determined on the days indicated. Open diamonds: No FK1012, no FL; Closed diamonds: FK1012 alone; Open circles: FL alone; Closed circles: FK1012 plus FL. Note that X axis is on a logarithmic scale.
Forty-eight hours following administration of 150 mg/kg 5-fluorouracil (5-FU), marrow cells were harvested from B6D2F1 mice and cultured for 48 hours in Dulbecco's Modified Eagle's Medium containing 16% fetal calf serum (Intergen), 5% IL3-conditioned medium (Stem Cell Technologies), 100 ng/ml recombinant human IL6 and 50 ng/ml recombinant murine stem cell factor in a 37° C., 5% CO2 incubator. After 48 hours, cells were transferred onto irradiated (1500 cGy) producer cells and cocultivated using the same growth conditions except for the addition of polybrene ([…]). Marrow cells were harvested after 48-hours of cocultivation.
In order to test whether the pharmacological activation of mpl is capable of driving proliferation in genetically modified bone marrow cells, the F1mpl construct was inserted into the retroviral vector MSCV-neoEB (Hawley, et al. Gene Ther. 1:136, 1994). The resulting construct, MSCVF1mpl, was used to generate a stable, high titer, helper virus-free ecotropic producer cell line as described above. Supernatant from the producer cell line was capable of conferring G418 resistance and FK1012 responsiveness in transduced Ba/F3 cell clones (FIG. 1C). Gene transfer into murine bone marrow cells was performed by cocultivation, and transduced marrow cells were tested in suspension culture for the capacity to respond to FK1012. In one set of cultures, FK1012's effects were evaluated in the absence of added growth factors. […] Cell numbers were determined at various time points of culture (FIG. 2). In the absence of drug or added growth factors, all cells died over a period of 7-14 days. […] In contrast, FK1012 dramatically stimulated cell proliferation. The proliferative effect of FK1012 was apparent within 5 days of culture, and has persisted for longer than 49 days without evidence of decline. […] By 42 days of culture FK1012 had induced a greater than 2.5 million-fold expansion in cell numbers.
The types of cells emerging in response to FK1012 differed at varying time points of culture. […] Similar results were obtained in a second experiment.

[6] = system: transduced marrow cells; test: Reversibility of FK1012-dependent cell proliferation after 28 days of culture; format: cell-based, murine
Description: For the experiments whose results are shown in Table 3, after 28 days of culture in FK1012 (100 nM), transduced marrow cells were washed extensively and cultured in suspension in the presence (+) or absence (−) of FK1012. The numbers in Table 3 indicate the number of cells per well×10^−5.

[7] = system: clonogenic progenitor cells (CFU-C) of MSCVF1mpl-transduced marrow; test: CFU-C assays during suspension culture, with or without G418; format: cell-based, murine
Description: FIG. 3: CFU-C assays at various time points during suspension culture. Cells were harvested on the days indicated and cultured in semisolid media (Blau, et al. Hum. Gen. Ther. 7:2069, 1996) either in the presence or absence of G418. The concentration of G418, […], was sufficient to prevent the growth of nontransduced cells (data not shown). Dark bars: CFU-C numbers in the absence of G418; Light bars: CFU-C numbers in the presence of G418. (A) No FK1012, no FL; (B) FK1012 alone; (C) FL alone; (D) FK1012 plus FL. Note that FK1012-mediated CFU-C expansion markedly favors the genetically modified cell population.
To determine whether FK1012 is capable of stimulating expansion among clonogenic progenitor cells, progenitors were assayed at various time points of culture as colony forming unit cells (CFU-C). As the MSCVF1mpl vector incorporates a neo gene. (Hawley, et al. Gene Ther. 1:136, 1994), the frequency of genetically modified progenitors is reflected in the frequency of G418 resistant CFU-C. […] By day 28 CFU-C had fallen to undetectable levels (FIG. 3A). In contrast, in the presence of FK1012 an almost 600,000-fold expansion in CFU-C was observed by day 42 (FIG. 3B). […] Of note is that while granulocytes were virtually absent after 42 days in suspension culture in the presence of FK1012 alone, CFU-C progeny derived from these cultures contained large numbers of granulocytes. […]

[8] = system: G418 resistant CFU-C; test: FK1012-mediated selection of genetically modified CFU-C in a mixed transduced/non-transduced marrow population; format: cell-based, murine; conditions: mixed transduced and non-transduced marrow
Text: In order to determine whether FK1012 is capable of specifically delivering a mitogenic signal to a minor population of genetically modified CFU-C, marrow cells cocultivated with the MSCVF1mpl producer cell line were mixed with marrow cells cocultivated with the parental packaging cell line. The frequency of G418 CFU-C arising from this mixed population of transduced and non-transduced cells was 35%.
The numbers in Table 4 indicate the fraction of G418 resistant CFU-C.

[9] = In vivo half life
[10] = gp130 chimeric proteins containing a single FKBP12 domain
[11] = gp130 fusion proteins with two or three FKBP12 domains
[12] = FK1012 100 nM, suspension culture

In the case of `CCC(C)(C)C(=O)C(=O)N1CCCC[C@H]1C(=O)O[C@H](CCc1ccc(OC)c(OC)c1)c1cccc(OCC(=O)NCCNC(=O)COc2cccc([C@@H](CCc3ccc(OC)c(OC)c3)OC(=O)[C@@H]3CCCCN3C(=O)C(=O)C(C)(C)CC)c2)c1` [AP1510], the proliferative response [1, 10] is reported as “minimal proliferative response”, the proliferative response [1, 11] is reported as “vigorous proliferative responses” and the “immunosuppressive activity or other toxicity to cells” value [2] is reported as “no immunosuppressive activity or other toxicity to cells”. It also gave a solubility [3] of at most 5 µM.

For `CC[C@H](C(=O)N1CCCC[C@H]1C(=O)O[C@H](CCc1ccc(OC)c(OC)c1)c1cccc(OCC(=O)NCCNC(=O)COc2cccc([C@@H](CCc3ccc(OC)c(OC)c3)OC(=O)[C@@H]3CCCCN3C(=O)[C@@H](CC)c3cc(OC)c(OC)c(OC)c3)c2)c1)c1cc(OC)c(OC)c(OC)c1` [AP1903], the cells expressing glycophorin ([4]; by day 15 of culture) was 90%, the “expansion in total cell numbers” value ([4]; in the absence of added cytokines) was 175-350 fold and the cell proliferation ([1]; MSCV construct, gp130 with two modified FKBP12 domains, Ba/F3 cells) was “vigorous AP1903-dependent cell proliferation”.

In the case of FK1012, the “persistence of proliferative effect without evidence of decline” value [5, 12] is reported as over 49 days, the “time until proliferative effect apparent” value [5, 12] is reported as at most 5 days and the “expansion in cell numbers” value ([5]; by 42 days of culture, FK1012 100 nM) is reported as “greater than 2.5 million”. For the same molecule, the “types of cells emerging” value ([5]; first two weeks of culture in FK1012) was “mature granulocytes and macrophages predominated, while megakaryocytes were rare”, the “types of cells emerging” value ([5]; later time points of culture in FK1012) was “megakaryocytes emerged as the dominant phenotypically identifiable cell population” and the “number of cells per well” value ([6]; absence (−) of FK1012 after 28 days in FK1012 and washing, day 0) was 5 10^5 cells per well. For the same molecule, the “number of cells per well” value ([6]; absence (−) of FK1012 after 28 days in FK1012 and washing, day 7) was 0.59 10^5 cells per well, the “number of cells per well” value ([6]; absence (−) of FK1012 after 28 days in FK1012 and washing, day 14) was “.09 cells per well×10^−5” and the “reversibility of proliferative effect” value ([6]; cells cultured 28 days in FK1012, then withdrawal or re-addition) was “withdrawal of FK1012 was followed promptly by cell death”. For the same molecule, the “number of cells per well” value ([6]; presence (+) of FK1012, day 0 in culture) was 5 10^5 cells per well, the “number of cells per well” value ([6]; presence (+) of FK1012, day 7 in culture) was 36 10^5 cells per well and the “number of cells per well” value ([6]; presence (+) of FK1012, day 14 in culture) was 1283 10^5 cells per well. For the same molecule, the “expansion in CFU-C” value ([7]; by day 42, FK1012 alone) was ~600,000 fold, the “fraction of G418 resistant CFU-C” value ([8]; day 0 in culture) was 0.35 and the “fraction of G418 resistant CFU-C” value ([8]; day 7 in culture) was 0.96. The proliferative response [1, 10] was “minimal proliferative response”, the proliferative response [1, 11] was “lesser proliferative responses” and the “in vivo half life” value [9] was “less than one”.

B1: FL: flt-3 ligand (Peprotech), growth factor used at 100 ng/ml (protein, UniProt P49771 27-235, looked up)
Fms-related tyrosine kinase 3 …: TQDCSFQHSPISSDFAVKIRELSDYLLQDYPVTVASNLQDEELCGGLWRLVLAQRWMERLKTVAGSKMQGLLERVNTEIHFVTKCAFQPPPSCLRFVQTNISRLLQETSEQLVALKPWITRQNFSRCLELQCQPDSSTLPPPWSPRPLEATAPTAPQPPLLLLLLLPVGLLLLAAAWCLHWQRTRRRTPRPGEQVPPVPSPQDLLLVEH
In the case of B1, the “cell survival in suspension culture” value ([5]; FL alone) is reported as “all cells died by day 28”, the “expansion in cell numbers” value ([5]; FL alone (100 ng/ml), between 9 and 12 days of suspension culture) is reported as “three” and the “expansion in CFU-C” value ([7]; FL alone, transient, without preference for the transduced population) is reported as “seven”. For the same molecule, the “fraction of G418 resistant CFU-C” value ([8]; day 0 in culture) was 0.35 and the “fraction of G418 resistant CFU-C” value ([8]; day 7 in culture) was 0.14.
